This passage reports IC50 results from PubChem BioAssay AID588780 (Sanford-Burnham Center for Chemical Genomics, 2011).

Molecules are shown by their SMILES. Calls of active or inactive are those of the source.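 The calls were made as follows: active = compounds whose fitted half-maximal concentration in the cell-protection dose series is at or below a set limit; inactive = the rest.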

The subject of the experiment is H9c2 cardiomyocytes, 2-deoxyglucose stress, ATP luminescence, 2 h. In words: protection of cardiomyocytes from 2-deoxyglucose injury, dose response, cell-based, 2-deoxyglucose stress, uHTS hits (AID 588780).
In the case of `Cn1ncc(Cl)c1C(=O)N/N=C/c1ccccn1`, the IC50 is > 79 µM (inactive). On to `COc1ccc2cc3cc(C(=O)NCCc4ccc(OC)c(OC)c4)oc3nc2c1`, for which the half-inhibitory concentration (IC50) is 7.71 µM. For `Cc1cccc(NC(=O)c2nc[nH]c2C(=O)NCCCCCCNC(=O)c2[nH]cnc2C(=O)Nc2cccc(C)c2)c1`, the IC50 was > 79 µM (inactive). For `CC(=O)Nc1ccc(S(=O)(=O)N(Cc2cccnc2)Cc2cc3ccccc3[nH]c2=O)cc1` the value was > 79 µM (inactive); for `O=C(Cn1[nH]c(=O)c2ccccc2c1=O)OCC(=O)N1CCc2ccccc2C1`, > 79 µM (inactive).

Take `O=C(NNC(=O)c1cc2cc(Br)ccc2oc1=O)c1ccc(O)cc1O`: the IC50 was 31.7 µM (inactive). For `O=c1c2ccccc2nc(/C=C/c2ccc(O)cc2)n1-c1ccc(O)cc1` the value was > 79 µM (inactive); for `O=C(N/N=C\c1ccccn1)c1cccc(C(=O)N/N=C\c2ccccn2)n1`, 36 µM (inactive); for `Cc1c(O)c(CN2CCCCC2)cc2c1oc(=O)c1ccccc12`, > 79 µM (inactive). In the case of `COc1cc(-c2cc(NC=O)c3ncc(-c4ccc(C(C)=O)cc4)n3c2)ccc1O`, the IC50 is > 79 µM (inactive).

On to `CCOC(=O)c1ccc(-c2ccc3ncnc(NCc4csc(C)n4)c3c2)o1`, for which the IC50 is > 79 µM (inactive). Take `CC(=O)c1cccc(-c2cnc3c(NC=O)cc(-c4cccc(C(=O)N(C)C)c4)cn23)c1`: the half-inhibitory concentration (IC50) was 19.5 µM.

Turning to `COc1ccc(NC(=O)c2cc(-c3ccccn3)nc3ccccc23)cc1S(=O)(=O)N(C)C`, the IC50 is > 79 µM (inactive). For the molecule `COc1cc(-c2cc(NC(C)=O)c3ncc(-c4ccc(F)cc4)n3c2)cc(OC)c1OC`, the IC50 was > 79 µM (inactive). Consider `CN(C)CCNc1ccc(-c2n[nH]c(=O)c3ccccc23)cc1[N+](=O)[O-]`, for which the IC50 was > 79 µM (inactive). For `Cn1c(-n2c(CCCN3C(=O)c4ccccc4C3=O)nc3ccccc3c2=O)nc2ccccc21` the value was 26.4 µM. For the molecule `CCOC(=O)C1=C(C)NC(C)=C(C(=O)OCC)C1C(=O)OCC(=O)NC1CCCCC1`, the IC50 is 6.02 µM. As to `CCOC(=O)COc1cccc(C2NC(=O)c3ccccc3O2)c1` (centres undefined), the IC50 is > 79 µM (inactive).

Take `Nc1c(C(=O)N/N=C/c2cccnc2)oc2nc(-c3ccccc3)cc(-c3ccco3)c12`: the IC50 was > 79 µM (inactive). Consider `CCCc1cc(N2CCN(C(=O)c3ccco3)CC2)n2c(nc3ccccc32)c1C#N`, for which the IC50 is 21.4 µM. For `O=C(Oc1ccc(N(Cc2cccs2)C2=NS(=O)(=O)c3ccccc32)cc1)c1ccccc1Cl`, the IC50 is > 79 µM (inactive).

On to `CC(=O)Nc1ccc(Nc2nc(-c3sc(NC(C)=O)nc3C)cs2)cc1`, for which the IC50 is 14.4 µM. Regarding `COc1ccc(C2CC(c3cccs3)n3nc(N)nc3N2)cc1` (centres undefined), the IC50 is > 79 µM (inactive). For `COc1ccc2nc(Nc3nc(CSc4nc5ccccc5[nH]4)cc(=O)[nH]3)nc(C)c2c1` the value was > 79 µM (inactive); for `O=C(Nc1nc(-c2ccc(S(=O)(=O)N3CCCC3)cc2)cs1)C1COc2ccccc2O1` (centres undefined), > 79 µM (inactive).

For the molecule `COc1ccc(-c2cc(-c3nnc(COC(=O)C4CC4)o3)c3ccccc3n2)cc1OC`, the IC50 is 6.83 µM. For `Oc1c(Br)cc(Br)cc1C=Nc1cccc2ncccc12` the value was 27.3 µM; for `CNC(=O)COC(=O)/C=C/c1cn(-c2ccccc2)nc1-c1ccc(C)o1`, 11.6 µM. `CC1CCCN(Cc2nc3c(c(=O)n(C)c(=O)n3C)n2CCCc2ccccc2)C1` (centres undefined): the IC50 is 35 µM (inactive). On to `Cc1[nH]c2ccccc2c1/C=N/NC(=O)c1cc(-c2ccccc2)n[nH]1`, for which the IC50 was > 79 µM (inactive). Take `COc1ccccc1-c1cc2nc(-c3ccccc3)cc(N3CCN(C(=O)c4ccoc4)CC3)n2n1`: the IC50 is > 79 µM (inactive). As for `CC(=O)n1cc(/C=N/NC(=O)c2sc(C)nc2C)c2ccccc21`, the IC50 is > 79 µM (inactive). As for `COc1ccccc1NC(=O)c1cc(-c2cc(OC)c(OC)c(OC)c2)nc2ccccc12`, the IC50 was > 79 µM (inactive).

As to `CCN(C[C@H]1N[C@@](C)(C(=O)OC)[C@H]2C(=O)N(Cc3ccccc3)C(=O)[C@@H]12)C(=O)c1ccc(C(C)(C)C)cc1`, the IC50 is > 79 µM (inactive). The result for `COc1ccc(CSc2nc3ccccc3c(=O)[nH]2)cc1F` reads > 79 µM (inactive). As to `Cc1ccc(C(=O)Oc2ccc(Cl)c3cccnc23)cc1[N+](=O)[O-]`, the IC50 is > 79 µM (inactive).

Consider `CC(=O)c1ccc(-c2ccc(C(=O)Nc3nc(-c4ccccn4)cs3)o2)cc1`, for which the IC50 is 44.7 µM (inactive). The result for `CC(NC(=O)Cn1nc(C(=O)O)c2ccccc2c1=O)c1ccccc1` (centres undefined) reads > 79 µM (inactive); that for `Cc1ccc(C(=O)Nc2nc(-c3ccccn3)cs2)s1`, > 79 µM (inactive); that for `CN(C)C(=O)/C=C\c1cn(-c2ccccc2)nc1-c1ccc2c(c1)OCCO2`, > 79 µM (inactive). Consider `Cc1ccc(C)c(S(=O)(=O)N2CCN(C(=O)CCc3nc4ccccc4c(=O)[nH]3)CC2)c1`, for which the IC50 is > 79 µM (inactive).

With `CC(=O)Nc1cc(C)nn1-c1nc2ccccc2s1`, the IC50 was 18 µM. With `CNC(=O)c1cccc(NC(=O)c2cc(-c3ccccc3)nc3c2cnn3C(C)C)c1`, the IC50 is > 79 µM (inactive).

Regarding `COc1ccc(-c2oc(=O)c3cc(OC)c(OC)cc3c2C#CCCO)cc1`, the IC50 was > 79 µM (inactive). Turning to `O=c1[nH]c(NCc2ccccc2)nc2c1CCCC2`, the IC50 was > 79 µM (inactive). For `CCCNC(=O)c1ccc2c(=O)c(O)c(-c3ccc(C)cc3)[nH]c2c1` the value was > 79 µM (inactive); for `COc1cc(/C=C/c2nc3ccccc3c(=O)n2-c2ccc(O)cc2)ccc1O`, 9.14 µM; for `CCOC(=O)c1c(C)[nH]c(O)c1C=Nc1ccc(Cl)cc1`, > 79 µM (inactive). In the case of `O=C(Nc1cc(S(=O)(=O)N2CCOCC2)ccc1N1CCCCC1)c1cc(-c2ccccn2)nc2ccccc12`, the IC50 is > 79 µM (inactive). For `COc1cc2c(C#CCCCO)c(-c3ccsc3)oc(=O)c2cc1OC` the value was > 79 µM (inactive); for `O=C(COc1cccc(NC(=O)c2cccc([N+](=O)[O-])c2)c1)c1ccc(F)cc1`, > 79 µM (inactive); for `Cc1nc(N2CCN(S(=O)(=O)c3cccc4nonc34)CC2)c2c3c(sc2n1)CCCC3`, > 79 µM (inactive). As for `O=C(CCc1nc2ccccc2c(=O)[nH]1)N1CCN(c2ccccc2Cl)CC1`, the IC50 is > 79 µM (inactive). `Cc1c(C#N)c(N)nc2c3c(sc12)NC(=O)CC3c1ccc(Cl)cc1` (centres undefined): the half-inhibitory concentration (IC50) was 19.7 µM. For `COc1ccc(-c2cc(C(=O)NC(C)c3ccccn3)c3ccccc3n2)cc1OC` (centres undefined) the value was 13 µM. For `COc1ccc(CNn2c(-c3cccs3)nc3ccccc3c2=O)cc1OC` the value was 11.8 µM; for `CCCCn1nc(NC(=O)c2cccs2)c2cc3ccccc3nc21`, 18.2 µM; for `CCn1c(SCC(=O)N2CCN(c3ccccc3)CC2)nc2c(c1=O)SC(C)C2` (centres undefined), > 79 µM (inactive). For `CCOc1ccc(-n2cc(-c3ccccc3)c3c(N4CCOCC4)ncnc32)cc1` the value was > 79 µM (inactive); for `C/C(=N\NC(=O)c1c(Br)c(C)nn1C)c1ccc(NC(=O)c2ccoc2C)cc1`, > 79 µM (inactive). As to `COc1ccc(-c2nn3c(-c4ccccc4)nnc3s2)cc1OC`, the IC50 was > 79 µM (inactive).

As for `COc1ccc(CC(=O)N(Cc2ccccc2)c2ccccc2)cc1S(=O)(=O)N1CCOCC1`, the IC50 is > 79 µM (inactive). For `O=c1[nH]n(CC2COC3(CCCCC3)O2)c(=O)c2ccccc12` (centres undefined) the value was > 79 µM (inactive); for `CN(C)C(=O)C1C2NC(=S)N(c3cccc(Cl)c3)C1(C)Oc1ccc(Cl)cc12` (centres undefined), 66.7 µM (inactive). For `O=C(C[C@H]1C/C=C\CC[C@H](Cc2ccc(F)cc2)C(=O)O[C@@H](c2ccccc2)CNC1=O)N[C@H](CO)Cc1ccccc1`, the IC50 was > 79 µM (inactive). Consider `O=c1[nH]nc(CNc2ccc(C(F)(F)F)cc2)c2ccccc12`, for which the half-maximal inhibitory concentration (IC50) is 15.1 µM. Turning to `COc1ccc(C2/C=C\CN(S(=O)(=O)c3cccc4cccnc34)CC(=O)N2Cc2ccc(F)cc2)cc1` (centres undefined), the IC50 is > 79 µM (inactive). The result for `O=c1[nH]ccc2c(O)cccc12` reads > 79 µM (inactive); that for `Brc1ccc(-c2ccc(/C=N/Nc3nc(N4CCOCC4)nc(N4CCOCC4)n3)o2)cc1`, > 79 µM (inactive); that for `O=C(CCCSc1nc2sc3c(c2c(=O)[nH]1)CCC3)NCCCO`, > 79 µM (inactive).

As to `CCOC(=O)c1nc(Nc2ccc(C(=O)OC)cc2)c2ccccc2n1`, the IC50 was > 79 µM (inactive). With `Cn1c(=O)[nH]c(=O)c2c1nc(Br)n2CC(O)COc1ccc(Cl)cc1` (centres undefined), the IC50 is 15.2 µM. For `COC(=O)Cc1n[nH]c(=O)c2ccccc12` the value was > 79 µM (inactive); for `CCC(Oc1ccccc1)C(=O)Nc1ccccc1C(=O)N1CCCCC1` (centres undefined), 25.3 µM; for `CCOC(=O)c1ccccc1OCc1cc(/C=N/NC(=O)c2cccnc2)ccc1OC`, 10.7 µM. The result for `O=c1[nH]c2cccc(Cl)c2c2ccccc12` reads > 79 µM (inactive); that for `CCOC(=O)C1=C(CC)Nc2ccccc2N=C1NC(=O)c1ccc(S(=O)(=O)N(C)C)cc1`, > 79 µM (inactive); that for `O=C(Cn1[nH]c(=O)c2ccccc2c1=O)NCC1COc2ccccc2O1` (centres undefined), > 79 µM (inactive). The result for `CC(C)(C)OC(=O)NCCCCCNC(=O)c1[nH]cnc1C(=O)Nc1ccc(Cl)cc1` reads > 79 µM (inactive); that for `COc1cc2ccccc2cc1C(=O)NNC(=O)c1ccccc1O`, > 79 µM (inactive). For the molecule `CCc1nnc(NC(=O)CCC(=O)N2CCN(C3c4ccccc4-c4ccccc43)CC2)s1`, the IC50 was > 79 µM (inactive). For `Cc1ccc2[nH]c(=O)c(CN(CCCN3CCOCC3)C(=O)Nc3ccc(Cl)cc3)cc2c1` the value was > 79 µM (inactive); for `COc1ccc([N+](=O)[O-])cc1NC(=O)C(C)OC(=O)Cn1[nH]c(=O)c2ccccc2c1=O` (centres undefined), 40 µM (inactive); for `O=C(CSc1nnc(-c2ccccc2)n1Cc1ccccc1)NNC(=O)c1ccccc1O`, > 79 µM (inactive).
